According to ChEMBL document CHEMBL1201862, “PubChem BioAssay data set” (2004):
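Five compound concentrations were applied to cells in 96-well plates for 48 hours; endpoints were derived by simple linear interpolation of the resulting dose-response curve. GI50 marks 50% less growth.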 Calls of active or inactive are those of the source. Cut-off read from the data, not from the text of the source: active = GI50 up to about 1.1 µM and inactive = higher.

Legend:
Test in all cases: NCI tumour cell line growth inhibition, 48 h
[1] = test system: 786-0
[2] = test system: A498
[3] = test system: A549
[4] = test system: ACHN
[5] = test system: CAKI-1
[6] = test system: CCRF-CEM
[7] = test system: COLO 205
[8] = test system: DLD-1
[9] = test system: DMS-114
[10] = test system: DMS-273
[11] = test system: EKVX
[12] = test system: HCC 2998
[13] = test system: HCT-116
[14] = test system: HCT-15
[15] = test system: HL-60
[16] = test system: HOP-18
[17] = test system: HOP-62
[18] = test system: HOP-92
[19] = test system: HT-29
[20] = test system: IGROV-1
[21] = test system: K562
[22] = test system: KM-20L2
[23] = test system: KM12
[24] = test system: LOX IMVI
[25] = test system: LXFL 529
[26] = test system: M14
[27] = test system: M19-MEL
[28] = test system: MOLT-4
[29] = test system: Malme-3M
[30] = test system: NCI-H23
[31] = test system: NCI-H460
[32] = test system: NCI-H522
[33] = test system: OVCAR-3
[34] = test system: OVCAR-4
[35] = test system: OVCAR-5
[36] = test system: OVCAR-8
[37] = test system: RPMI-8226
[38] = test system: RXF 393
[39] = test system: SF-268
[40] = test system: SF-295
[41] = test system: SF-539
[42] = test system: SK-MEL-28
[43] = test system: SK-MEL-2
[44] = test system: SK-MEL-5
[45] = test system: SK-OV-3
[46] = test system: SN12C
[47] = test system: SNB-19
[48] = test system: SNB-75
[49] = test system: SNB-78
[50] = test system: SW-620
[51] = test system: TK-10
[52] = test system: U-251
[53] = test system: UACC-257
[54] = test system: UACC-62
[55] = test system: UO-31
[56] = test system: NCI-H226
[57] = test system: SR
[58] = test system: XF498

Measured: GI50

c1ccc2c(c1)nnn1c3cnccc3nc21
inactive: [1] 32.4 µM | [2] 94 µM | [3] 30.9 µM | [4] 30.2 µM | [5] 28.6 µM | [6] 9.53 µM | [7] 20.7 µM | [8] 27.5 µM | [9] 20.2 µM | [10] 15.9 µM | [11] 51.6 µM | [12] 46.5 µM | [13] 27.6 µM | [15] 8.87 µM | [16] 53.5 µM | [17] 40.2 µM | [18] 24.6 µM | [19] 28.2 µM | [20] 36.4 µM | [21] 21.6 µM | [22] 53.1 µM | [23] 23.9 µM | [24] 39.1 µM | [25] 31.8 µM | [26] 91 µM | [27] 65.9 µM | [28] 15.7 µM | [29] > 100 µM | [30] 37.8 µM | [31] 16 µM | [32] 13.9 µM | [33] 18.9 µM | [34] 29 µM | [35] 63.8 µM | [36] 30 µM | [37] 18.5 µM | [38] 24.7 µM | [39] 37.8 µM | [40] 77.1 µM | [41] 35.4 µM | [42] > 100 µM | [43] 53.2 µM | [44] 52.6 µM | [45] 42.2 µM | [46] 32.4 µM | [47] 47.6 µM | [48] 25.4 µM | [49] 25.5 µM | [50] 32.4 µM | [51] 35.2 µM | [52] 28.3 µM | [53] 85.1 µM | [54] 47 µM | [55] 38.9 µM
22.6 µM: [14]

O=C(/C=C/c1ccc(O)cc1)c1cc(Cl)ccc1O
inactive: [1] 77.6 µM | [2] > 100 µM | [3] 39.9 µM | [4] 70.8 µM | [5] > 100 µM | [6] 6.32 µM | [7] > 100 µM | [8] 43.6 µM | [9] 23.3 µM | [11] 86.3 µM | [12] 62.8 µM | [13] 22.6 µM | [15] 17.8 µM | [16] > 100 µM | [17] > 100 µM | [18] 85.3 µM | [19] 34.5 µM | [20] 57.4 µM | [21] 24.1 µM | [22] > 100 µM | [23] > 100 µM | [24] 18.7 µM | [25] 42.5 µM | [26] 55.3 µM | [27] 72.1 µM | [28] 16.6 µM | [29] 47.2 µM | [56] 95.9 µM | [30] 40.5 µM | [31] 50.2 µM | [32] 17.2 µM | [33] 28.2 µM | [34] 38.8 µM | [36] 39.4 µM | [38] 28.9 µM | [39] 42.8 µM | [40] 35.2 µM | [41] 18.8 µM | [42] 44.2 µM | [44] 37.2 µM | [45] > 100 µM | [46] 42.4 µM | [47] 44.9 µM | [48] 46.5 µM | [49] 29.9 µM | [57] 16.9 µM | [50] 35.4 µM | [51] > 100 µM | [52] 37.8 µM | [53] 71.8 µM | [54] 40.3 µM | [55] 21.8 µM | [58] 23.7 µM

O=C1N(Cl)C(=O)C(c2ccc(Cl)cc2)(c2ccc(Cl)cc2)N1Cl
inactive: [1] 48.3 µM | [2] > 100 µM | [3] 58.6 µM | [4] 55.8 µM | [5] > 100 µM | [6] 22.6 µM | [7] 41.8 µM | [8] 62.2 µM | [9] 39.9 µM | [10] > 100 µM | [11] > 100 µM | [12] > 100 µM | [13] 72.6 µM | [15] 26.1 µM | [16] > 100 µM | [18] > 100 µM | [19] 78.9 µM | [20] > 100 µM | [21] > 100 µM | [22] > 100 µM | [23] 48.8 µM | [25] 63 µM | [26] 34.4 µM | [27] 39.7 µM | [28] 56.8 µM | [29] > 100 µM | [56] > 100 µM | [30] > 100 µM | [31] 52.2 µM | [32] 64.4 µM | [33] > 100 µM | [34] > 100 µM | [36] 71.4 µM | [37] 41.2 µM | [38] 22.6 µM | [39] > 100 µM | [40] 55.3 µM | [41] > 100 µM | [42] > 100 µM | [43] > 100 µM | [44] > 100 µM | [45] > 100 µM | [46] 96.8 µM | [47] > 100 µM | [48] > 100 µM | [57] 39.4 µM | [50] > 100 µM | [51] > 100 µM | [52] > 100 µM | [55] 92.5 µM | [58] > 100 µM
91.8 µM: [14]

CSc1nc(-c2ccc(Cl)cc2)c(C#N)c(=O)n1C1OC(COC(C)=O)C(OC(C)=O)C(OC(C)=O)C1OC(C)=O (stereo not given)
inactive: [1] > 100 µM | [3] > 100 µM | [5] > 100 µM | [7] > 100 µM | [8] > 100 µM | [10] > 100 µM | [11] > 100 µM | [12] > 100 µM | [15] > 100 µM | [16] 29.9 µM | [20] 57.1 µM | [21] > 100 µM | [23] > 100 µM | [28] > 75 µM | [56] 33 µM | [33] 12.6 µM | [36] > 100 µM | [43] 53.8 µM | [44] > 100 µM | [46] > 100 µM | [57] > 100 µM | [50] > 100 µM | [51] > 100 µM | [58] > 100 µM
> 100 µM: [14]
